Earlier results, collected in patent US6632827B2 (Sepracor Inc., priority 1996, dated 2003).
pEC50: −log10 of the molar value.

What was measured:
beta-adrenergic = details: S-enantiomer vs R-enantiomer
[1] = co-administered ketoconazole
5HT4 receptors = target: T1, 5HT4 receptors (Mus musculus, UniProt P97288); details: cultured mouse embryo colliculi neurons; read-out: EC50 concentration, cAMP generation as endpoint for 5HT4 activity
T1 construct: Using cultured mouse embryo colliculi neurons and cAMP generation as an endpoint for designating 5HT4 activity; host or cells: cultured mouse embryo colliculi neurons
T1 sequence (P97288 whole entry): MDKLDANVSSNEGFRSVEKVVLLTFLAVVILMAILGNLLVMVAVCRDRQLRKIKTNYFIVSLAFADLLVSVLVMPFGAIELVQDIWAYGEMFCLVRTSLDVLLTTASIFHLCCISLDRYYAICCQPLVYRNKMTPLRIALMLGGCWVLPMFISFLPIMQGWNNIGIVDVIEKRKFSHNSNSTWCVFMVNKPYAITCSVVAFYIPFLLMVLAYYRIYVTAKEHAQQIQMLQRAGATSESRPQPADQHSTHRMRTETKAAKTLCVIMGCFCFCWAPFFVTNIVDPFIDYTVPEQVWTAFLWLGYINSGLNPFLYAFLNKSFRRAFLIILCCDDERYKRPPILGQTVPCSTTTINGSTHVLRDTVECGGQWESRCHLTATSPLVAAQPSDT

Question: For COc1cc(N)c(Cl)cc1C(=O)NC1CCNCC1OC (racemic) [(±) Norcisapride, 4-amino-5-chloro-N-(3-methoxy-4-piperidinyl)-2 methoxybenzamide], which “Share of the drug found in urine” value (urine of humans 72 hours after dosing of cisapride) is on record?
Answer: 50-80%

Question: With CC(C)NCC(O)COc1cccc2ccccc12 (stereo not drawn) [propranolol] as the molecule, how does the “Potency of S-enantiomer relative to R-enantiomer” value (beta-adrenergic) read?
Answer: 100 times

Question: Which “Bioavailability of the parent compound” value (oral administration to humans) does the source give for COc1cc(N)c(Cl)cc1C(=O)N[C@H]1CCN(CCCOc2ccc(F)cc2)C[C@H]1OC (racemic) [(±) Cisapride, cis-4-amino-5-chloro-N-[1-[3-(4-fluorophenoxy)propyl]-3-methoxy-4-piperidinyl]-2-methoxybenzamide] here?
Answer: 40-50%

Question: What about the “Fraction of dose metabolized” value (oxidative N-dealkylation or aromatic hydroxylation) of the same molecule?
Answer: More than 90%

Question: What about the “Increase in steady-state plasma levels” value [1] of the same molecule?
Answer: 8 fold

Question: What about the pEC50 (5HT4 receptors) of the same molecule?
Answer: 7.15
